Target: T1, Autotaxin enzyme (ATX) (Homo sapiens, UniProt Q13822)
T1 construct: purchased Echelon Biosciences, Inc. E-4000
Assay: In vitro ATX assay (enzymatic ATX inhibition, LPC 14:0 substrate, choline oxidase/HRP absorbance readout)
Assay type: biochemical
Conditions: 0.3 mM LPC 14:0, 37° C., 4 hours, absorbance 555 nm
Summary of the method: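 Human ATX (10 ng/mL as added) in pH 9.0 Tris buffer with NaCl, MgCl2, CoCl2 and Triton X-100 was preincubated with compound for 15 min at 37 °C. LPC 14:0 (0.3 mM final) was then hydrolysed for 4 h at 37 °C. Released choline was detected by choline oxidase/HRP with 4-AAP/TOOS, read after 15 min RT as absorbance at 555 nm, giving banded IC50 values.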

Row | Compound | IC50 [nM]
1 | O=C(c1cnc(NCc2cc(OC(F)(F)F)cc(C3CC3)c2)nc1)N1CCC12CCOC2 (stereo not shown) [Example 97, (2-((3-cyclopropyl-5-(trifluoromethoxy)benzyl)ami-no)pyrimidin-5-yl)(6-oxa-1-azaspiro[3.4]octan-1-yl)methanone] | < 100
2 | CN(C)C1CN(C(=O)c2cnc(NCc3cc(OC(F)(F)F)cc(C4CC4)c3)nc2)C1 [Example 110, (2-((3-cyclopropyl-5-(trifluoromethoxy)benzyl)ami-no)pyrimidin-5-yl)(3-(dimethylamino)azetidin-1-yl)methanone] | 100 to 1000
3 | CC1CC(C)N1C(=O)c1cnc(NCc2cc(OC(F)(F)F)cc(C3CC3)c2)nc1 (stereo not shown) [Example 93, (2-((3-cyclopropyl-5-(trifluoromethoxy)benzyl)ami-no)pyrimidin-5-yl)(2,4-dimethylazetidin-1-yl)methanone] | < 100
4 | O=C(c1cnc(NC2Cc3ccc(Br)cc3C2)nc1)N1CCC12COC2 (stereo not shown) [Example 43] | < 100
5 | COC[C@@H]1CCN1C(=O)c1cnc(NC2Cc3ccc(Cl)cc3C2)nc1 (stereo partly shown) [Example 57] | < 100
6 | O=C(c1cnc(NCc2cc(OC(F)(F)F)cc(C3CC3)c2)nc1)N1CC2(CCO2)C1 [Example 105, (2-((3-cyclopropyl-5-(trifluoromethoxy)benzyl)ami-no)pyrimidin-5-yl)(1-oxa-6-azaspiro[3.3]heptan-6-yl)methanone] | 100 to 1000
7 | O=C(c1cnc(NCc2cccc(C(F)(F)F)c2)nc1)N1CCC12COC2 [Example 20] | ≥ 1000

Source: US20210363152A1, “AMINOAZINE AMIDES” (Hoffmann-La Roche Inc., priority 2018, published 2021)
